Key:
Type in all cases: functional
[1] = system: IGROV-1; assay: Anticancer activity against Homo sapiens (human) IGROV1 cells assessed as cell growth promotion at 10 uM after 48 hr by SRB assay
[2] = system: UACC-257; assay: Anticancer activity against Homo sapiens (human) UACC257 cells assessed as cell growth promotion at 10 uM after 48 hr by SRB assay
[3] = system: T47D; assay: Anticancer activity against Homo sapiens (human) T47D cells assessed as cell growth promotion at 10 uM after 48 hr by SRB assay
[4] = system: BT-549; assay: Anticancer activity against Homo sapiens (human) BT549 cells assessed as cell growth promotion at 10 uM after 48 hr by SRB assay
[5] = system: Hs-578T; assay: Anticancer activity against Homo sapiens (human) Hs 578T cells assessed as cell growth promotion at 10 uM after 48 hr by SRB assay
[6] = system: MDA-MB-231; assay: Anticancer activity against Homo sapiens (human) MDA-MB-231/ATCC cells assessed as cell growth promotion at 10 uM after 48 hr by SRB assay
[7] = system: MCF7; assay: Anticancer activity against Homo sapiens (human) MCF7 cells assessed as cell growth promotion at 10 uM after 48 hr by SRB assay
[8] = system: PC-3; assay: Anticancer activity against Homo sapiens (human) PC3 cells assessed as cell growth promotion at 10 uM after 48 hr by SRB assay
[9] = system: DU-145; assay: Anticancer activity against Homo sapiens (human) DU145 cells assessed as cell growth promotion at 10 uM after 48 hr by SRB assay
[10] = system: UO-31; assay: Anticancer activity against Homo sapiens (human) UO31 cells assessed as cell growth promotion at 10 uM after 48 hr by SRB assay
[11] = system: TK-10; assay: Anticancer activity against Homo sapiens (human) TK10 cells assessed as cell growth promotion at 10 uM after 48 hr by SRB assay
[12] = system: RXF 393; assay: Anticancer activity against Homo sapiens (human) RXF393 cells assessed as cell growth promotion at 10 uM after 48 hr by SRB assay
[13] = system: ACHN; assay: Anticancer activity against Homo sapiens (human) ACHN cells assessed as cell growth promotion at 10 uM after 48 hr by SRB assay
[14] = system: SK-OV-3; assay: Anticancer activity against Homo sapiens (human) SKOV3 cells assessed as cell growth promotion at 10 uM after 48 hr by SRB assay
[15] = system: NCI/ADR-RES; assay: Anticancer activity against Homo sapiens (human) NCI/ADR-RES cells assessed as cell growth promotion at 10 uM after 48 hr by SRB assay
[16] = system: OVCAR-5; assay: Anticancer activity against Homo sapiens (human) OVCAR5 cells assessed as cell growth promotion at 10 uM after 48 hr by SRB assay
[17] = system: OVCAR-4; assay: Anticancer activity against Homo sapiens (human) OVCAR4 cells assessed as cell growth promotion at 10 uM after 48 hr by SRB assay
[18] = system: MDA-MB-468; assay: Anticancer activity against Homo sapiens (human) MDA-MB-468 cells assessed as cell growth promotion at 10 uM after 48 hr by SRB assay
[19] = system: HCC 2998; assay: Anticancer activity against Homo sapiens (human) HCC2998 cells assessed as cell growth promotion at 10 uM after 48 hr by SRB assay
[20] = system: COLO 205; assay: Anticancer activity against Homo sapiens (human) COLO205 cells assessed as cell growth promotion at 10 uM after 48 hr by SRB assay
[21] = system: NCI-H522; assay: Anticancer activity against Homo sapiens (human) NCI-H522 cells assessed as cell growth promotion at 10 uM after 48 hr by SRB assay
[22] = system: NCI-H322M; assay: Anticancer activity against Homo sapiens (human) NCI-H322M cells assessed as cell growth promotion at 10 uM after 48 hr by SRB assay
[23] = system: NCI-H226; assay: Anticancer activity against Homo sapiens (human) NCI-H226 cells assessed as cell growth promotion at 10 uM after 48 hr by SRB assay
[24] = system: HOP-92; assay: Anticancer activity against Homo sapiens (human) HOP92 cells assessed as cell growth promotion at 10 uM after 48 hr by SRB assay
[25] = system: HOP-62; assay: Anticancer activity against Homo sapiens (human) HOP62 cells assessed as cell growth promotion at 10 uM after 48 hr by SRB assay
[26] = system: SR; assay: Anticancer activity against Homo sapiens (human) SR cells assessed as cell growth promotion at 10 uM after 48 hr by SRB assay
[27] = system: MOLT-4; assay: Anticancer activity against Homo sapiens (human) MOLT4 cells assessed as cell growth promotion at 10 uM after 48 hr by SRB assay
[28] = system: K562; assay: Anticancer activity against Homo sapiens (human) K562 cells assessed as cell growth promotion at 10 uM after 48 hr by SRB assay
[29] = system: HL-60(TB); assay: Anticancer activity against Homo sapiens (human) HL-60(TB) cells assessed as cell growth promotion at 10 uM after 48 hr by SRB assay
[30] = system: SK-MEL-2; assay: Anticancer activity against Homo sapiens (human) SK-MEL-2 cells assessed as cell growth promotion at 10 uM after 48 hr by SRB assay
[31] = system: MDA-MB-435; assay: Anticancer activity against Homo sapiens (human) MDA-MB-435 cells assessed as cell growth promotion at 10 uM after 48 hr by SRB assay
[32] = system: M14; assay: Anticancer activity against Homo sapiens (human) M14 cells assessed as cell growth promotion at 10 uM after 48 hr by SRB assay
[33] = system: Malme-3M; assay: Anticancer activity against Homo sapiens (human) MALME-3M cells assessed as cell growth promotion at 10 uM after 48 hr by SRB assay
[34] = system: LOX IMVI; assay: Anticancer activity against Homo sapiens (human) LOXIMVI cells assessed as cell growth promotion at 10 uM after 48 hr by SRB assay
[35] = system: SNB-75; assay: Anticancer activity against Homo sapiens (human) SNB75 cells assessed as cell growth promotion at 10 uM after 48 hr by SRB assay
[36] = system: SNB-19; assay: Anticancer activity against Homo sapiens (human) SNB19 cells assessed as cell growth promotion at 10 uM after 48 hr by SRB assay
[37] = system: SF-295; assay: Anticancer activity against Homo sapiens (human) SF295 cells assessed as cell growth promotion at 10 uM after 48 hr by SRB assay
[38] = system: SF-539; assay: Anticancer activity against Homo sapiens (human) SF539 cells assessed as cell growth promotion at 10 uM after 48 hr by SRB assay
[39] = system: SW-620; assay: Anticancer activity against Homo sapiens (human) SW620 cells assessed as cell growth promotion at 10 uM after 48 hr by SRB assay
[40] = system: HT-29; assay: Anticancer activity against Homo sapiens (human) HT-29 cells assessed as cell growth promotion at 10 uM after 48 hr by SRB assay

| SMILES | Activity [1] | Activity [2] | Activity [3] | Activity [4] | Activity [5] | Activity [6] | Activity [7] | Activity [8] | Activity [9] | Activity [10] | Activity [11] | Activity [12] | Activity [13] | Activity [14] | Activity [15] | Activity [16] | Activity [17] | Activity [18] | Activity [19] | Activity [20] | also measured |
| --- | --- | --- | --- | --- | --- | --- | --- | --- | --- | --- | --- | --- | --- | --- | --- | --- | --- | --- | --- | --- | --- |
| Cc1ccc(Nn2c(SCC(=O)Nc3nc(-c4ccccc4)cs3)nc(C)c2C)cc1 | 86% | 54.08% | 6.48% | 63.51% | 105.97% | 46% | 24.07% | 71.8% | 83.4% | 51.58% | 72.7% | 61.47% | 60.88% | 69.62% | 34.4% | 81.8% | 25.36% | 17.71% | 91.96% | 32.48% | Activity [21]: 49.7%; Activity [22]: 96.01%; Activity [23]: 46.34%; Activity [24]: 59.94%; Activity [25]: 67.17%; Activity [26]: 72.64%; Activity [27]: 54.72%; Activity [28]: 37.67%; Activity [29]: 63.8%; Activity [30]: 81.38%; Activity [31]: 76.71%; Activity [32]: 76.97%; Activity [33]: 92.03%; Activity [34]: 51.93%; Activity [35]: 38.33%; Activity [36]: 74.35%; Activity [37]: 46.1%; Activity [38]: 73.68%; Activity [39]: 98.8%; Activity [40]: 56.13% |
| Cc1nc(SCC(=O)Nc2nccs2)n(Nc2ccccc2)c1C | 123.21% | 94.83% | 90.52% | 96.32% | 115.31% | 95.5% | 98.76% | 93.56% | 116.36% | 84.18% | 111.75% | 83.96% | 95.27% | 102.5% | 96.1% | 80.93% | 103.25% | 105.55% | 101.96% | 117.71% | Activity [21]: 102.09%; Activity [22]: 118.03%; Activity [23]: 100.29%; Activity [24]: 76.48%; Activity [25]: 83.75%; Activity [26]: 100.2%; Activity [27]: 108.49%; Activity [28]: 101.35%; Activity [29]: 96.52%; Activity [30]: 106.73%; Activity [31]: 104.58%; Activity [32]: 96.9%; Activity [33]: 121.77%; Activity [34]: 99.28%; Activity [35]: 85.3%; Activity [36]: 108.55%; Activity [37]: 86.6%; Activity [38]: 86.84%; Activity [39]: 116.34%; Activity [40]: 99.8% |
